Laboratory results reported in patent US20090217390A1, “Non-human animal sarcoma model” (priority 2005, published 2009).
Where “and” joins values, the source holds several entries; their conditions need not be identical. Equal entries are not always repeated.

Assays:
Format in all cases: cell-based, mouse
[1] = tested on: C3H/10T1/2 parental cell line; experiment: Cytotoxicity experiment with increasing doses of blasticidin; conditions: doses 0.3-3 μg/ml
Method: The selective blasticidin dose was established on the basis of a previous cytotoxicity experiment for the C3H/10T1/2 parental cell line, which received increasing doses of blasticidin (0.3, 0.6, 0.8, 1, 1.5, 2, 2.5, 3 μg/ml). 2 μg/ml was determined to be the lowest dose that induced 100% death due to cytotoxicity.

[2] = tested on: EWS-FLI1 chimeric fusion expression in clone 7.5; experiment: Induction of chimeric fusion by doxycycline (RT-PCR), clone 7.5; conditions: 48 hours
Method: (§1) FIG. 3. Induction of chimeric fusion by Doxycycline. A. Upper gel. Induction of chimeric fusion following treatment of the cells with increasing doxycycline doses (0-3 μg/ml) in clone 7.5. The maximum induction was obtained for 2.5-μg/ml doxycycline doses. Lower gel. The quantity of amplified product was identical in all cases, as shown by Beta-actin. B. Upper gel. The maximum induction for clone 10.6 was at 1.5-μg/ml doxycycline doses. Higher doses caused saturation of the promoter's response. Lower gel. Beta-actin.
(§2) Clones 7.5 and 10.6 received increasing doses of doxycycline for 48 hours, after which time the presence of fusion was examined by means of RT-PCR.

[3] = tested on: EWS-FLI1 chimeric fusion expression in clone 10.6; experiment: Induction of chimeric fusion by doxycycline (RT-PCR), clone 10.6; conditions: 48 hours
Method: as §1, §2

SMILES	lowest dose that induced 100% death due to cytotoxicity [1]	doxycycline dose causing a slight induction of chimeric fusion [2]	doxycycline concentration of maximum induction of chimeric fusion ([2]; doses 0-3 μg/ml)	doxycycline concentration of maximum induction of chimeric fusion (higher doses cause no greater induction) [3]	doxycycline dose at which induction of fusion was found [3]
CN(CC[C@H](N)CC(=O)N[C@H]1C=C[C@H](n2ccc(N)nc2=O)O[C@@H]1C(=O)O)C(=N)N [blasticidin]	2 µg/mL				
C[C@H]1c2cccc(O)c2C(=O)C2=C(O)[C@]3(O)C(=O)C(C(N)=O)=C(O)[C@@H](N(C)C)[C@@H]3[C@@H](O)[C@@H]21 [doxycycline]		0.3 µg/mL	2.5 µg/mL	1.5 to 2 µg/mL and 1.5 µg/mL	greater than 0.3 μg/ml
